Data set [1] concerns Human CD3+ T cells.
Description: 10^5 freshly isolated CD3′ T cells were activated using CD3/CD28 dynabeads (Dynal, USA) at a T cell:bead ratio of 1:1 in 200 ul of medium in 96 wells plate. Channel blockers diluted at different concentrations in PBS were added to the cells 1 h prior to stimulation (done in triplicate).
Human CD3′ T cells were stimulated with CD3/CD28 beads following incubation with different concentrations (from 0.1 to 100 nM) of MK and KTX. The activity of MK was compared to the activity of KTX that was previously described to block the channels (Beeton et al, JI 2001).
Data set [2] relates to guinea pig ileum. The note with it: J Pharmacol Exp Ther. 1999; cited from earlier work.
Data set [3] has as its system guinea pig ileum. The data set can be described thus: Intraluminal pressure measurement of peristaltic activity of guinea pig ileum. The note with it: MgTX 10 nM; mokatoxin-1 1-100 nM.
Data set [4] relates to guinea pig ileum. The experiment in a line: Spontaneous motility (twitches) of guinea pig ileum strips. The note with it: reference toxins 10 nM; mokatoxin-1 1-100 nM.
Data set [5] has as its target T1, Kv1.3 (Homo sapiens, UniProt P22001). The data set can be described thus: Whole-cell patch-clamp of Kv1.3 currents in HEK293 cells, toxin-phage applied. It counts as cell-based. The note with it: 0.1 nM toxin-displaying phage. Also noted: expressed in transfected cells; host or cells: HEK (HEK293) and COS cells. As for the experimental part: […] […] Plasmids were transfected into cells with Lipofectamine 2000 (Invitrogen) according to the manufacturer's instructions. Experiments were performed at 24 hr. Whole-cell patch-clamp was performed using an Axopatch 200B amplifier and pCLAMP software (Molecular Devices, Union City, Calif.) at filter and sampling frequencies of 5 and 25 kHz respectively. Kv1.3 currents were evoked by 250 ms test pulses to 50 mV from −80 mV with a 5 second interpulse interval and studied in a bath solution comprising in mM: 1.3 CaCl2, 0.5 MgCl2, 0.4 MgSO4, 3.56 KCl, 0.44 KH2PO4, 139.7 NaCl, 0.34 Na2HPO4, 5.5 glucose, 10 HEPES adjusted to pH 7.4 with NaOH. […] Electrodes were coated with Sigmacote (Sigma) prior to use.
Electrophysiological recordings were performed with mokatoxin—0422 to confirm blocking of Kv1.3 channels. […] Plasmids were transfected into cells with Lipofectamine 2000 (Invitrogen) according to the manufacturer's instructions. Experiments were performed at 24 hrs. Whole-cell patch-clamp was performed using an Axopatch 200B amplifier and pCLAMP software (Molecular Devices, Union City, Calif.) at filter and sampling frequencies of 5 and 25 kHz respectively. […]
(In patch-clamp work, channel activity is measured electrically.)

The target of data set [6] is T1, Kv1.3. The experiment in a line: Phage panning on live cells (HEK, COS) expressing Kv1.3 channels. Type of data set: binding. Also on record: expressed in transfected cells; host or cells: HEK (HEK293) and COS cells. An excerpt:
In another example, receptors may be expressed in cells. For example, cells may be stably or transiently transfected with one or more receptors can be utilized as expressed in native tissues (Clackson and Lowman, Phage display. Oxford University Press, 2004; Barbas et al., Phage display. A laboratory manual. Cold Spring Harbor Laboratory Press, 2001; Sambrook et al., Molecular Cloning: A Laboratory Manual. Vols 1-3. Cold Spring Harbor Laboratory Press, 1989). In one example, HEK (mammalian human embryonic kidney) and COS cells expressing wild-type Kv1.3 or Kv1.3-PDZ domain chimera were employed, the latter target allowing a “double” panning (e.g., as a control or to enhance binding affinity) using phages expressing kaliotoxin-1 and/or PDZ-binder domain.
Panning may be performed by the binding of ligands to the receptors, followed by washes and ligand recovery. In one example, panning is performed according to standard methods of phage display (Clackson and Lowman, Phage display. Oxford University Press, 2004; Barbas et al., Phage display. A laboratory manual. Cold Spring Harbor Laboratory Press, 2001). Panning may be repeated until the desired enrichment is achieved. In addition, libraries can be pre-depleted on surfaces or cells that contain no receptors or on a receptor where the putative ligand receptor domain may be directly or indirectly altered. Additionally, any and all conditions of panning may be varied, altered or changed to achieve optimal results, such as the isolation of a specific ligand. Panning variations include, but are not limited to, the presence of competing ligand(s), presence of excess target(s), length and temperature of binding, pre-absorption of the ligand library on one or more different receptor(s) or cells or surfaces, composition of binding solution (e.g., ionic strength), stringency of washing, and recovery procedures. Phages recovered from panning may be processed for further rounds of panning, functional analysis, and/or sequencing/genotyping to deduce the resulting ligands' amino acid sequence or biological properties (Clackson and Lowman, Phage display. Oxford University Press, 2004; Barbas et al., Phage display. A laboratory manual. Cold Spring Harbor Laboratory Press, 2001).
5×10^11 phagemids were added to the cell cultures in “B.”
A library of KTX-like ligands, with a calculated diversity of greater than 11,000, was created de novo. The library comprised approximately 8% KTX-like ligands and 92% non-KTX-like ligands. The library of ligands was screened on Kv1.3 receptors expressed in HEK and COS cells.
Transfection efficiency was monitored with cotransfection of gene encoding for the green fluorescence protein (GFP) and observing the fluorescence after 1-2 days following transfection.
KTX and mokatoxin-1 are Kv1.3 specific scorpion toxins. […] Following incubation of the cells with the phages, cells were subjected to wash to remove the unbound/weakly bound phages. The remaining bound phages were eluted from the cells and transformed into XL1 E. coli, and plated onto LB plates with antibiotic selecting for the phagemids.

Data set [7] deals with vector transfected cells. The data set can be described thus: Phage panning on vector transfected cells (CONTROL). The note with it: one round of panning; calculated input 5:95%. It counts as binding, human.
Description: Following incubation of the cells with the phages, cells were subjected to wash to remove the unbound/weakly bound phages. The remaining bound phages were eluted from the cells and transformed into XL1 E. coli, and plated onto LB plates with antibiotic selecting for the phagemids. The following day, 19-20 colonies of transformed XL1 were randomly selected and genotyped to establish the relative ratio (i.e., its departure from the calculated initial input of 5:95%) of the two different phage species, before and after the panning.
[8] abbreviates: one round of panning, calculated input 5:95%.

The source of these data is US8716437B2 (priority 2007, dated 2014).

T1 sequence (P22001 whole entry): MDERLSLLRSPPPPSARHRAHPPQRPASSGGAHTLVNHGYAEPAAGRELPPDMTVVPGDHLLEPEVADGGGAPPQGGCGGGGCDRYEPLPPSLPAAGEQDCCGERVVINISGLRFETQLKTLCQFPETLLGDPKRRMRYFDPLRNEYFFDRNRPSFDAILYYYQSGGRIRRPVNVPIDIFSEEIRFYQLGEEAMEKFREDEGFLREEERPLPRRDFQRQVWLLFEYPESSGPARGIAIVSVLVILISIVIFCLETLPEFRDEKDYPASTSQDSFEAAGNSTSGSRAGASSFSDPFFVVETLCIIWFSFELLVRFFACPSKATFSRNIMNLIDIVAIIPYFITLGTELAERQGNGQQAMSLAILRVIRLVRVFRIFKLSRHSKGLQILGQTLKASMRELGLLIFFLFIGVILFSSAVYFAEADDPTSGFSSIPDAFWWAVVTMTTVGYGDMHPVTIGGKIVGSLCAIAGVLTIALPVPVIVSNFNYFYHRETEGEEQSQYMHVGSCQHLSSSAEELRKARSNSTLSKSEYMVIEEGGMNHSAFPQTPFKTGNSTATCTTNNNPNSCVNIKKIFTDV

Regarding `CC[C@H](C)[C@H](N)C(=O)N[C@@H](CC(N)=O)C(=O)N[C@H](C(=O)N[C@@H](CCCCN)C(=O)N[C@H]1CSSC[C@@H]2NC(=O)[C@H](CCCCN)NC(=O)CNC(=O)[C@H](Cc3ccccc3)NC(=O)[C@H](CCCNC(=N)N)NC(=O)[C@H](CCSC)NC(=O)CNC(=O)[C@H](C)NC(=O)[C@H](CC(=O)O)NC(=O)[C@H](CCCCN)NC(=O)[C@@H]3CSSC[C@@H](C(=O)N[C@@H](Cc4ccc(O)cc4)C(=O)N[C@@H](CO)C(=O)O)NC(=O)[C@H](CCCNC(=N)N)NC(=O)[C@H](CSSC[C@H](NC(=O)[C@H](CCC(N)=O)NC(=O)[C@H](CCC(N)=O)NC(=O)[C@@H]4CCCN4C(=O)[C@H](CC(C)C)NC(=O)[C@H](CO)NC1=O)C(=O)N[C@@H]([C@@H](C)CC)C(=O)N[C@@H](CCCCN)C(=O)N1CCC[C@H]1C(=O)N3)NC(=O)[C@H](CCCCN)NC(=O)[C@H](CCCCN)NC(=O)[C@H](CC(N)=O)NC(=O)[C@H](CCSC)NC2=O)C(C)C` [MK-1, mokatoxin-1], the cell viability result in data set [1] was “no reduction of cell viability”.

As to Margatoxin, the ileum contractions result in data set [2] is “contractions”. In addition, in data set [3], the “pressure threshold for initiation and frequency of peristaltic waves” value is “induced a lowering of the pressure threshold”. The “induction of twitches in ileum strips” value in data set [4] is listed as “induced twitches”.

For the molecule mokatoxin-2, in data set [5], the “block of Kv1.3 channels expressed in mammalian cells” value is reported as “blocks Kv1.3 channels”. For the same molecule, in data set [6] (HEK, KTX scaffold combinatorial library, n=18), the “share after the 2nd round of panning of the library on Kv1.3 cells” value came out at 11%. In data set [6] (setting [8]), the “# of genotype (%), Test” value is recorded as 90% and the “# of genotype, Test” value was 18. Besides, in data set [7], the “# of genotype (%), Control” value is listed as 5% and the “# of genotype, Control” value is listed as 1.
